We go through eleven molecules from ChEMBL document CHEMBL1201862, “PubChem BioAssay data set” (2004).

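Assay format: 96-well plates, 48-hour exposure. GI50 = concentration required for 50% inhibition of growth.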 Active and inactive are the calls of the source. No stated cut-off is given here; in the data, active = GI50 up to about 1.1 µM and inactive = higher.

Some test systems named below: ACHN; CCRF-CEM; COLO 205; HCT-116; HOP-92; KM12; MDA-MB-231; MDA-MB-435; MDA-N; MOLT-4; OVCAR-3; OVCAR-8; RPMI-8226; SK-MEL-28; SN12C; SNB-19; SW-620; TK-10; A498; SF-539.
Common to all, as to experiment: NCI tumour cell line growth inhibition, 48 h

With `C=CC1(c2ccc(Cl)c(Cl)c2)OCCO1`, the GI50 in the experiment on ACHN was > 100 µM (inactive); in the experiment with CCRF-CEM, > 100 µM (inactive); in the experiment with COLO 205, > 100 µM (inactive); in the experiment on HCT-116, 97.7 µM (inactive); in the experiment with HOP-92, 23.2 µM (inactive); with KM12, > 100 µM (inactive). Also, the GI50 with MDA-MB-231 is 1.83 µM (inactive); in the experiment on MDA-MB-435, > 100 µM (inactive); in the experiment on MDA-N it was > 100 µM (inactive); in the experiment with MOLT-4, > 100 µM (inactive); in the experiment with OVCAR-3 it was > 100 µM (inactive); in the experiment with OVCAR-8, > 100 µM (inactive). The GI50 with RPMI-8226, in the experiment on SK-MEL-28, with SN12C, in the experiment on SNB-19, with SW-620 and in the experiment on TK-10 was > 100 µM (inactive) in each case.
For the molecule `CCCNC(=O)Cn1c2c(c3ccccc31)CCCC2`, the GI50 in the experiment with A498 is 27.8 µM (inactive); with ACHN, 34.9 µM (inactive); in the experiment on CCRF-CEM, > 100 µM (inactive); in the experiment on COLO 205, > 100 µM (inactive); with HCT-116, 29.2 µM (inactive); with HOP-92 it was > 100 µM (inactive). The GI50 in the experiment with MDA-MB-435 was > 100 µM (inactive); with MDA-N it was 68.7 µM (inactive); in the experiment on MOLT-4, 43.6 µM (inactive); in the experiment with OVCAR-3 it was 36.9 µM (inactive); in the experiment on OVCAR-8 it was > 100 µM (inactive); in the experiment on RPMI-8226, 40.7 µM (inactive). Besides, the GI50 was 37.1 µM (inactive) in the experiment on SF-539; 88.9 µM (inactive) with SK-MEL-28; 65.2 µM (inactive) in the experiment on SN12C; 36.7 µM (inactive) with SNB-19; 55.6 µM (inactive) in the experiment with SW-620; > 100 µM (inactive) in the experiment on TK-10.
Regarding `COc1ccc(/C=C2\CCC(C)c3c2nc(N)c(C#N)c3-c2ccc(OC)c(OC)c2)cc1OC` (stereo unspecified), the GI50 is 15.7 µM (inactive) in the experiment with ACHN; 3.89 µM (inactive) in the experiment with CCRF-CEM; 6.56 µM (inactive) in the experiment with COLO 205; 8.81 µM (inactive) with HCT-116; 7.6 µM (inactive) in the experiment with KM12; 9.89 µM (inactive) with MDA-MB-231. Besides, the GI50 is 10.8 µM (inactive) in the experiment on MDA-MB-435; 33.4 µM (inactive) in the experiment on MDA-N; 3.1 µM (inactive) in the experiment on MOLT-4; 9.29 µM (inactive) in the experiment with OVCAR-3; 9.82 µM (inactive) in the experiment with OVCAR-8; 3.65 µM (inactive) in the experiment with RPMI-8226. Also, the GI50 in the experiment on SF-539 was 27.4 µM (inactive); in the experiment with SK-MEL-28, 45.8 µM (inactive); in the experiment with SN12C, > 100 µM (inactive); with SNB-19, 72.4 µM (inactive); in the experiment with SW-620, > 100 µM (inactive); with TK-10, 10.8 µM (inactive).
`O=C1c2cccc3cc([N+](=O)[O-])cc(c23)C(=O)N1Nc1ccc([N+](=O)[O-])cc1[N+](=O)[O-]`: the GI50 in the experiment with A498 is 18.4 µM (inactive); in the experiment on ACHN it was 0.557 µM (active); in the experiment on CCRF-CEM, 1.85 µM (inactive); in the experiment on COLO 205, 11.5 µM (inactive); with HCT-116 it was 10.9 µM (inactive); with HOP-92, 17.9 µM (inactive). Also, the GI50 in the experiment with KM12 was 14.6 µM (inactive); in the experiment on MDA-MB-231 it was 16.8 µM (inactive); with MDA-MB-435, 20.2 µM (inactive); in the experiment with MOLT-4, 1.97 µM (inactive); with OVCAR-3, 22.3 µM (inactive); with OVCAR-8, 13 µM (inactive). Also, the GI50 with RPMI-8226 was 12.8 µM (inactive); in the experiment with SF-539, 10.6 µM (inactive); with SK-MEL-28, 11.9 µM (inactive); in the experiment with SN12C, 22.8 µM (inactive); in the experiment with SNB-19, 18.2 µM (inactive); in the experiment on SW-620, 10 µM (inactive). In the experiment on TK-10, the GI50 is 31.8 µM (inactive).
On to `Cc1cc(C)c2c(c1)C(=O)/C(=C/c1ccccc1C(=O)O)C2`, for which the GI50 in the experiment on A498 was 67 µM (inactive); in the experiment on ACHN it was > 100 µM (inactive); with CCRF-CEM, 44.2 µM (inactive); in the experiment on HCT-116, 63 µM (inactive); in the experiment with HOP-92, > 100 µM (inactive); in the experiment with KM12, 94.6 µM (inactive). In addition, the GI50 in the experiment with MDA-MB-231 was 50.2 µM (inactive); in the experiment on MDA-N it was 67.5 µM (inactive); in the experiment with MOLT-4 it was 34.4 µM (inactive); in the experiment with OVCAR-3 it was 22.5 µM (inactive); with OVCAR-8, 68.4 µM (inactive); with RPMI-8226, 55.1 µM (inactive). In addition, the GI50 in the experiment with SF-539 is 25.9 µM (inactive); in the experiment on SK-MEL-28 it was > 100 µM (inactive); in the experiment on SN12C it was 53.8 µM (inactive); in the experiment with SNB-19, 50.1 µM (inactive); with SW-620, 84.3 µM (inactive); in the experiment on TK-10 it was > 100 µM (inactive).
As to `COc1ccc(/N=N/C(=O)NC(CC(C)C)C(=O)NC(CC(C)C)C(=O)O)cc1` (stereo unspecified), the GI50 is > 100 µM (inactive) in the experiment on A498; 12.5 µM (inactive) with ACHN; 42.6 µM (inactive) in the experiment on CCRF-CEM; 21.5 µM (inactive) with COLO 205; 86.5 µM (inactive) with HCT-116; > 100 µM (inactive) in the experiment on HOP-92. Moreover, the GI50 was 43.8 µM (inactive) with KM12; 34.5 µM (inactive) with MDA-MB-435; 35.3 µM (inactive) in the experiment with MDA-N; 41.6 µM (inactive) with MOLT-4; > 100 µM (inactive) in the experiment with OVCAR-3; > 100 µM (inactive) in the experiment with OVCAR-8. Moreover, the GI50 in the experiment on RPMI-8226 is > 100 µM (inactive); with SF-539, 4.81 µM (inactive); in the experiment with SK-MEL-28, 17.8 µM (inactive); in the experiment on SN12C, > 100 µM (inactive); in the experiment with SNB-19, > 100 µM (inactive); in the experiment on SW-620 it was 67 µM (inactive). Further, the GI50 in the experiment with TK-10 was > 100 µM (inactive).
For `O=C1CCCCC1=C(I)I`, the GI50 was 20.5 µM (inactive) in the experiment with A498; 17.6 µM (inactive) in the experiment with ACHN; 19.1 µM (inactive) in the experiment on CCRF-CEM; 15.3 µM (inactive) in the experiment with COLO 205; 16.6 µM (inactive) with HCT-116; 15.4 µM (inactive) in the experiment with HOP-92. Moreover, the GI50 with KM12 was 15.5 µM (inactive); in the experiment on MDA-MB-435 it was 19.1 µM (inactive); in the experiment on MDA-N, 16.9 µM (inactive); with MOLT-4, 17.9 µM (inactive); in the experiment on OVCAR-3, 16.3 µM (inactive); with OVCAR-8, 33.9 µM (inactive). Further, the GI50 with RPMI-8226 was 15.1 µM (inactive); in the experiment with SF-539, 19.5 µM (inactive); in the experiment on SK-MEL-28, 17 µM (inactive); in the experiment with SN12C, 23.7 µM (inactive); in the experiment on SNB-19, 12.1 µM (inactive); in the experiment on SW-620, 17.4 µM (inactive).
For the molecule `CN(CCSCCN(C)C(=O)OC(C)(C)C)C(=O)OC(C)(C)C`, the GI50 in the experiment on ACHN, with CCRF-CEM, in the experiment with COLO 205, in the experiment on HCT-116, with HOP-92 and in the experiment with KM12 was > 100 µM (inactive) each time. Moreover, the GI50 in the experiment on MDA-MB-231, in the experiment on MDA-MB-435, with MDA-N, in the experiment on MOLT-4, in the experiment with OVCAR-3 and in the experiment with OVCAR-8 was > 100 µM (inactive) each time. Also, the GI50 in the experiment with SF-539, in the experiment with SK-MEL-28, in the experiment on SN12C, with SNB-19, with SW-620 and in the experiment on TK-10 was > 100 µM (inactive) throughout.
With `S=C1CSc2c(cnc3ccccc23)N1`, the GI50 in the experiment with ACHN, in the experiment with CCRF-CEM, in the experiment on COLO 205, in the experiment with HCT-116, in the experiment with KM12 and with MDA-MB-231 was > 100 µM (inactive) each time. Further, the GI50 was > 100 µM (inactive) in the experiment on MDA-MB-435; > 100 µM (inactive) with MDA-N; > 100 µM (inactive) in the experiment on MOLT-4; > 100 µM (inactive) with OVCAR-3; 65.9 µM (inactive) in the experiment on OVCAR-8; > 100 µM (inactive) in the experiment on RPMI-8226. For the same molecule, the GI50 was > 100 µM (inactive) in the experiment with SK-MEL-28, > 100 µM (inactive) in the experiment on SN12C, > 100 µM (inactive) in the experiment on SNB-19 and 35.1 µM (inactive) in the experiment on TK-10.
In the case of `CC12CCC(=O)N1c1cncnc1N2` (stereo unspecified), the GI50 in the experiment on ACHN, in the experiment with CCRF-CEM, with HCT-116, with HOP-92, in the experiment on KM12 and in the experiment with MDA-MB-435 was > 10 µM (inactive) throughout. Besides, the GI50 in the experiment on MDA-N, in the experiment with MOLT-4, in the experiment on OVCAR-3, in the experiment on OVCAR-8, with SF-539 and with SN12C was > 10 µM (inactive) throughout. The GI50 in the experiment with SNB-19, in the experiment on SW-620 and in the experiment with TK-10 was > 10 µM (inactive) throughout.
As for `O=C(CC(=O)N1N=C(N2c3ccccc3Sc3ccccc32)CC1c1ccccc1)Nc1ccccc1Cl` (stereo unspecified), the GI50 in the experiment with A498, with ACHN, in the experiment on CCRF-CEM, in the experiment with COLO 205, in the experiment on HCT-116 and with HOP-92 was > 100 µM (inactive) in each case. Also, the GI50 in the experiment on KM12, with MDA-MB-231, with MDA-MB-435, in the experiment with MOLT-4, in the experiment with OVCAR-3 and with OVCAR-8 was > 100 µM (inactive) in each case. Further, the GI50 with RPMI-8226, in the experiment with SF-539, in the experiment on SK-MEL-28, in the experiment with SN12C, in the experiment with SNB-19 and in the experiment with SW-620 was > 100 µM (inactive) each time. In the experiment with TK-10, the GI50 was > 100 µM (inactive).
